Source: patent publication US12404244B2, “Pan-KIT kinase inhibitor having quinoline structure and application thereof” (Tarapeutics Science Inc., priority 2018, dated 2025)
Like-named read-outs stand apart in the source and are kept apart here.

Legend:
Type in all cases: cell-based, mouse
BaF3 = test: Proliferation of parental BaF3 cells (CCK-8); conditions: for GI50: Mus musculus, read-out: GI50 BaF3
Source text: (§1) Compounds as provided herein were further evaluated for their inhibitory effects on proliferation of cancer cells by testing their effects on growth of cancer cells. In this example the following cells were used: primary mouse B cells BaF3 (purchased from ATCC), GIST-T1 cells of the human gastrointestinal stromal tumor cell line (expressing wild-type KIT gene) (purchased from Cosmo Bio Co., Ltd. (Japan)). The present lab further constructed and used the following: mouse Tel-Kit-BaF3 (stably expressing KIT wild-type kinase), mouse Tel-Kit/T670I-BaF3 (stably expressing KIT T670I mutant kinase), mouse Tel-Kit/V559A-BaF3 (stably expressing KIT V559A mutant kinase), mouse Tel-Kit/V559D-BaF3 (stably expressing KIT V559D mutant kinase), mouse Tel-Kit/V559G-BaF3 (stably expressing KIT V559G mutant kinase), mouse Tel-Kit/V560D-BaF3 (stably expressing KIT V560D mutant kinase), mouse Tel-Kit/L576P-BaF3 (stably expressing KIT L576P mutant kinase), mouse Tel-Kit/V654A-BaF3 (stably expressing KIT V654A mutant kinase), mouse Tel-Kit/V654A/V559D-BaF3 (stably expressing KIT V654A V559D mutant kinase), mouse Tel-Kit/T670E-BaF3 (stably expressing KIT T670E mutant kinase), mouse Tel-Kit/T670I/V559D-BaF3 (stably expressing KIT T670I V559D mutant kinase), mouse Tel-Kit/S709F-BaF3 (stably expressing KIT S709F mutant kinase), mouse Tel-Kit/D816E-BaF3 (stably expressing KIT D816E mutant kinase), mouse Tel-Kit/D816H-BaF3 (stably expressing KIT D816H mutant kinase), mouse Tel-Kit/D820E-BaF3 (stably expressing KIT D820E mutant kinase), mouse Tel-Kit/D820G-BaF3 (stably expressing KIT D820G mutant kinase), mouse Tel-Kit/D820Y-BaF3 (stably expressing KIT D820Y mutant kinase), mouse Tel-Kit/N822K-BaF3 (stably expressing KIT N822K mutant kinase), mouse Tel-Kit/Y823D-BaF3 (stably expressing KIT Y823D mutant kinase), mouse Tel-Kit/A829P-BaF3 (stably expressing KIT A829P mutant kinase), GIST-T1-T670I cells of the human gastrointestinal stromal tumor cell line (expressing KIT-T670I mutant gene). The above cell lines were constructed by: amplifying respectively the sequences of human KIT and various mutant kinase regions of KIT via PCR, inserting the fragments respectively into MSCV-Puro vectors having a N-terminal TEL fragment and/or a NPM fragment and/or a TPR fragment (purchased from Clontech), transfecting mouse BaF3 cells with the vectors by means of retrovirus to obtain stably transfected cells, removing the growth factor IL-3, and thereby eventually obtaining cell lines that depend on the transferred protein KIT or various mutants of KIT. The GIST-T1-T670I (expressing C-KIT-T670I mutant gene) cell line was constructed by our laboratory as follows: designing sgRNA that targeted a region around T670 of the KIT gene with CRISPR Design Tool (website: crispr.mit.edu, Zhang Feng Lab), cloning it into pSpCas9(BB)-2A-Puro vector; co-transfecting cells with the resultant vector and a single-stranded oligonucleotide having T670I site mutation that is near to T670, subjecting the resultant to antibiotics screening, followed by dilution, and monocellular culture in a 96-well plate; validating the site T670 of the cells by sequence detection via Sanger sequencing.
(§2) The cells after incubation were detected using CCK-8 (purchased from MedChem Express, Shanghai, China) cell viability assay kit (CCK-8 may be reduced by dehydrogenase in living cells to a highly water-soluble yellow formazan product, and the amount of the resultant formazan is proportional to the number of living cells), the number of living cells were quantified with a microplate reader, and GI50 of the compounds and the control compounds were calculated (the results shown in Table 2 and Table 3).

TEL-KIT/T670I-BaF3 = test: Proliferation of TEL-KIT/T670I-BaF3 cells (CCK-8); conditions: for GI50: Mus musculus, read-out: GI50 TEL-KIT/T670I-BaF3
Source text: as §1

[1] = test system: TEL-KIT-BaF3 (stably expressing KIT wild-type kinase); test: Proliferation of TEL-KIT-BaF3 cells (CCK-8); conditions: for GI50: Mus musculus, read-out: GI50 TEL-KIT-BaF3
Source text: as §1, §2

[2] = BaF3 parent cells, 72 hours, CCK-8

SMILES	GI50 (BaF3; BaF3, 72 h) [nM]	inhibitory effect against mutant KIT-T670I (TEL-KIT/T670I-BaF3)	GI50 (TEL-KIT/T670I-BaF3; 72 h) [nM]	inhibitory effect against wild-type KIT [1]	GI50 ([1]; 72 h) [nM]	GI50 (BaF3; [2]) [nM]	GI50 (TEL-KIT/T670I-BaF3; 72 hours, CCK-8) [nM]	GI50 ([1]; KIT wild-type, 72 hours, CCK-8) [nM]	selectivity against BaF3 (BaF3; KIT and KIT-T670I relative to parent BaF3 cells)
COc1cc2nccc(Oc3ccc(NC(=O)Cc4ccccc4)cn3)c2cc1OC [Comparative Example 1, N-(6-((6,7-dimethoxyquinolin-4-yl)oxy)pyridin-3-yl)-2-phenylacetamide, reference compound]	> 10000	no significant inhibitory effects	> 10000	no significant inhibitory effects	> 10000	–	–	–	–
COc1cc2nccc(Oc3ccc(C(=O)NCc4cccc(C(F)(F)F)c4)cc3)c2cc1OC [Comparative Example 3, N-(3-(trifluoromethyl)benzyl)-4-((6,7-dimethoxyquinolin-4-yl)oxy)benzamide, reference compound]	–	substantially vanished	–	substantially vanished	–	≥ 10000	4610	2350	–
COc1cccc(CC(=O)Nc2ccc(Oc3ncnc4cc(OC)c(OC)cc34)cc2)c1 [Comparative Example 4, N-(4-((6,7-dimethoxyquinazolin-4-yl)oxy)phenyl)-2-(3-methoxyphenyl)acetamide, reference compound]	–	certain inhibitory activity but lower than that of the present invention compounds	–	certain inhibitory activity but lower than that of the present invention compounds	–	3120	844	183	weaker selectivity against BaF3
COc1cc2nccc(Oc3ccc(NC(=O)Cc4cccc(C(F)(F)F)c4)cc3)c2cc1OC [Example 8, N-(4-((6,7-dimethoxyquinolin-4-yl)oxy)phenyl)-2-(3-(trifluoromethyl)phenyl)acetamide]	1890	–	1	–	20	–	–	–	–
COc1cc2nccc(Oc3ccc(NC(=O)Cc4ccc(C(F)(F)F)cc4)cc3)c2cc1OC [Example 9, N-(4-((6,7-dimethoxyquinolin-4-yl)oxy)phenyl)-2-(4-(trifluoromethyl)phenyl)acetamide]	2160	–	11	–	22	–	–	–	–
COc1cc2nccc(Oc3ccc(NC(=O)Cc4ccc(C)c(C)c4)cc3)c2cc1OC [Example 11, N-(4-((6,7-dimethoxyquinolin-4-yl)oxy)phenyl)-2-(3,4-dimethylphenyl)acetamide]	6420	–	15	–	27	–	–	–	–
COc1cc2nccc(Oc3ccc(NC(=O)Cc4ccc(F)c(C(F)(F)F)c4)cc3)c2cc1OC [Example 13, N-(4-((6,7-dimethoxyquinolin-4-yl)oxy)phenyl)-2-(4-fluoro-3-(trifluoromethyl)phenyl)acetamide]	1030	–	13	–	24	–	–	–	–
COc1cc2nccc(Oc3ccc(NC(=O)Cc4ccc(Cl)c(C(F)(F)F)c4)c(F)c3)c2cc1OC [Example 24, N-(2-fluoro-4-((6,7-dimethoxyquinolin-4-yl)oxy)phenyl)-2-(4-chloro-3-(trifluoromethyl)phenyl)acetamide]	3210	–	18	–	49	–	–	–	–
COc1cc2nccc(Oc3ccc(NC(=O)NCCCc4ccccc4)cc3)c2cc1OC [Example 30, 1-(4-((6,7-dimethoxyquinolin-4-yl)oxy)phenyl)-3-(3-phenylpropyl)urea]	–	–	–	–	–	2910	10	110	–
COc1cc2nccc(Oc3ccc(NC(=O)NCCCc4cccc(F)c4)cc3)c2cc1OC [Example 31, 1-(4-((6,7-dimethoxyquinolin-4-yl)oxy)phenyl)-3-(3-(3-fluorophenyl)propyl)urea]	–	–	–	–	–	2480	16	97	–
COc1cc2nccc(Oc3ccc(NC(=O)NCCCc4ccc(F)cc4)cc3)c2cc1OC [Example 32, 1-(4-((6,7-dimethoxyquinolin-4-yl)oxy)phenyl)-3-(3-(4-fluorophenyl)propyl)urea]	–	–	–	–	–	3850	15	68	–
COc1cc2nccc(Oc3ccc(NC(=O)Cc4ccc(Cl)c(C(F)(F)F)c4)cc3Cl)c2cc1OC [Example 38, N-(3-chloro-4-((6,7-dimethoxyquinolin-4-yl)oxy)phenyl)-2-(4-chloro-3-(trifluoromethyl)phenyl)acetamide]	9450	–	56	–	78	–	–	–	–
